Results: patent US20240050576A1, “METHODS AND COMPOUNDS FOR THE TREATMENT OF GENETIC DISEASE” (Design Therapeutics, Inc., priority 2020, published 2024)

What follows are compounds tested on human FXN (assay: FXN mRNA expression by qRT-PCR in GM15850 cells after 48 hr compound treatment). Details: GM15850 cells, 48 hr incubation, hFXN normalized to hGAPDH; read-out: EC50 WT (nM, 48 hr).
Type: cell-based
Protocol: Cell culture: Cells were cultured in RPMI1640 medium+15% FBS. Cells were maintained at a density between 2e5/mL and 1e6/mL. Cells were centrifuged, resuspended in fresh medium, counted and plated at 150,000 cells per well in 100 uL in a non-coated, flat bottom tissue culture plate.
Compound treatment: 10 mM stock solution of FA GeneTAC was diluted 1:10 in DMSO followed by a 1:100 dilution in growth medium. […] Compound was then diluted at a 1:3 ratio into growth medium containing 0.01% DMSO. 5-point, 3-fold dose response curve was generated. 11 μL of 10× compound was added to wells containing 100 μL cell suspension of GM15850. 11 μL growth medium containing 0.01% DMSO was added to all wells not treated with FA GeneTAC. Cells were allowed to incubate for 48 hrs prior to cell lysis using guanidine isothiocyanate solution.
RNA isolation: Total RNA was isolated and purified in 384-well column filter plates using chaotropic salt.
qRT-PCR: qRT-PCR reactions were assembled using AgPath-ID reagents (Thermo Fisher) using 6 uL mastermix and 4 μL RNA. qRT-PCR TaqMan primer probe sets against human FXN (Assay ID Hs01075496_m1) and human GAPDH (Assay ID Hs00266705_g1) were used to measure the intended targets. qRT-PCR was run on the ThermoFisher QuantStudio 6 PRO instrument using the manufacturer's recommended cycling conditions.
Data analysis: qPCR data was analyzed using Thermo Fisher Design and Analysis software. Data was exported to Excel and hFXN expression was normalized to hGAPDH expression.
`CC(=O)N1c2ccc(-c3ccc(C(=O)NCCOCCOCCOCCOCCOCCOCCOCCOCCNC(=O)c4nc(NC(=O)CCNC(=O)c5cc(NC(=O)c6nc(NC(=O)CCNC(=O)c7cc(NC(=O)c8nc(NC(=O)CCNC(=O)[C@H](CCCNC(=N)N)NC(=O)[C@@H](N)CCCNC(=N)N)cn8C)cn7C)cn6C)cn5C)cn4C)cc3)cc2[C@H](Nc2ccc(Cl)cc2)C[C@@H]1C` [Compound 90] showed an EC50 of 100 to 500 nM.

Same assay, conditions: Homo sapiens, GM15850, 48 h, read-out: EC50 WT (nM, 48 hr)
Compound `Cc1sc2c(c1C)C(c1ccc(Cl)cc1)=N[C@@H](CC(=O)Nc1ccc(OCCOCCOCCNC(=O)[C@H](CCCNC(=N)N)NC(=O)[C@H](CCCNC(=N)N)NC(=O)CCOCCOCCOCCNC(=O)CCNC(=O)c3nc(NC(=O)CCNC(=O)c4cc(NC(=O)c5nc(NC(=O)CCNC(=O)c6cc(NC(=O)c7nccn7C)cn6C)cn5C)cn4C)cn3C)cc1)c1nnc(C)n1-2` [Compound 99] has an EC50 of less than 100 nM.

Same assay, conditions: Homo sapiens; GM15850 cells, 48 hr incubation, hFXN normalized to hGAPDH; read-out: EC50 WT (nM, 48 hr)
Compound `Cc1sc2c(c1C)C(c1ccc(Cl)cc1)=N[C@@H](CC(=O)Nc1ccc(OCCOCCOCCOCCOCCOCCOCCOCCOCCOCCNC(=O)CCNC(=O)c3nc(NC(=O)CCNC(=O)c4cc(NC(=O)c5nc(NC(=O)CCNC(=O)c6cc(NC(=O)c7nccn7C)cn6C)cn5C)cn4C)cn3C)cc1)c1nnc(C)n1-2` [Compound 24] has an EC50 of less than 100 nM. Compound `Cc1noc(C)c1-c1cnc2c(-c3ccc(C(=O)NCCOCCOCCOCCOCCOCCOCCOCCNC(=O)CCNC(=O)c4nc(NC(=O)CCNC(=O)c5cc(NC(=O)c6nc(NC(=O)CCNC(=O)c7cc(NC(=O)c8nccn8C)cn7C)cn6C)cn5C)cn4C)cc3)cn([C@@H](C)c3ccccn3)c2c1` [Compound 41] has an EC50 of 100 to 500 nM. In the case of `CC(=O)N1c2ccc(-c3ccc(C(=O)NCCOCCOCCOCCOCCOCCOCCOCCNC(=O)CCNC(=O)c4nc(NC(=O)CCNC(=O)c5cc(NC(=O)c6nc(NC(=O)CCNC(=O)c7cc(NC(=O)c8nccn8C)cn7C)cn6C)cn5C)cn4C)cc3)cc2[C@H](Nc2ccc(Cl)cc2)C[C@@H]1C` [Compound 35, N-(5-((3-((2-((1-(4-((2S,4R)-1-acetyl-4-((4-chlorophenyl)amino)-2-methyl-1,2,3,4-tetrahydroquinolin-6-yl)phenyl)-1,27-dioxo-5,8,11,14,17,20,23-heptaoxa-2,26-diazanonacosan-29-yl)carbamoyl)-1-methyl-1H-imidazol-4-yl)amino)-3-oxopropyl)carbamoyl)-1-methyl-1H-pyrrol-3-yl)-1-methyl-4-(3-(1-methyl-4-(1-methyl-1H-imidazole-2-carboxamido)-1H-pyrrole-2-carboxamido)propanamido)-1H-imidazole-2-carboxamide], the EC50 is reported as less than 100 nM. Compound `Cc1sc2c(c1C)C(c1ccc(Cl)cc1)=N[C@@H](CC(=O)Nc1ccc(OCCOCCOCCOCCOCCOCCOCCOCC(=O)NCCCN(C)CCCNC(=O)c3cc(NC(=O)c4nc(NC(=O)CCNC(=O)c5cc(NC(=O)c6nc(NC(=O)CCNC(=O)c7cc(NC(=O)c8nccn8C)cn7C)cn6C)cn5C)cn4C)cn3C)cc1)c1nnc(C)n1-2` [Compound 57] has an EC50 of 100 to 500 nM. Compound `Cc1sc2c(c1C)C(c1ccc(Cl)cc1)=N[C@@H](CC(=O)Nc1cccc(OCCOCCOCCOCCOCCOCCC(=O)NCCCN(C)CCCNC(=O)CCNC(=O)c3nc(NC(=O)CCNC(=O)c4cc(NC(=O)c5nc(NC(=O)CCNC(=O)c6cc(NC(=O)c7nccn7C)cn6C)cn5C)cn4C)cn3C)c1)c1nnc(C)n1-2` [Compound 62] has an EC50 of less than 100 nM. For `CC(=O)N1c2ccc(-c3ccc(C(=O)NCCOCCOCCOCCOCCOCCOCCOCCOCCNC(=O)c4nc(NC(=O)CCNC(=O)c5cc(NC(=O)c6nc(NC(=O)CCNC(=O)c7cc(NC(=O)c8nc(NC(=O)CCNC(=O)COCCOCCOCCOCCOCCOCCOCCOCCOCCOCCOCCOCCOCCOCCOCCN)cn8C)cn7C)cn6C)cn5C)cn4C)cc3)cc2[C@H](Nc2ccc(Cl)cc2)C[C@@H]1C` [Compound 89], the EC50 was greater than 500 nM. `CC(=O)N1c2ccc(-c3ccc(C(=O)NCCOCCOCCOCCOCCOCCOCCOCCOCCNC(=O)CCNC(=O)c4nc(NC(=O)CCNC(=O)c5cc(NC(=O)c6nc(NC(=O)CCNC(=O)c7cc(NC(=O)c8nccn8C)cn7C)cn6C)cn5C)cn4C)cc3)cc2[C@H](Nc2ccc(Cl)cc2)C[C@@H]1C` [Compound 36] showed an EC50 of less than 100 nM. In the case of `Cc1sc2c(c1C)C(c1ccc(Cl)cc1)=N[C@@H](CC(=O)Nc1ccc(OCCOCCOCCOCCN3CCN(CCOCCOCCOCCNC(=O)CCNC(=O)c4nc(NC(=O)CCNC(=O)c5cc(NC(=O)c6nc(NC(=O)CCNC(=O)c7cc(NC(=O)c8nccn8C)cn7C)cn6C)cn5C)cn4C)CC3)cc1)c1nnc(C)n1-2` [Compound 40], the EC50 is reported as less than 100 nM. For `Cc1sc2c(c1C)C(c1ccc(Cl)cc1)=N[C@@H](CC(=O)Nc1ccc(OCCOCCOCCOCCOCCOCCOCCC(=O)NCCCN(C)CCCNC(=O)c3cc(NC(=O)c4nc(NC(=O)CCNC(=O)c5cc(NC(=O)c6nc(NC(=O)CCNC(=O)c7cc(NC(=O)c8nccn8C)cn7C)cn6C)cn5C)cn4C)cn3C)cc1)c1nnc(C)n1-2` [Compound 55], the EC50 was 100 to 500 nM. With `Cc1sc2c(c1C)C(c1ccc(Cl)cc1)=N[C@@H](CC(=O)Nc1ccc(OCCOCCOCCOCCOCCOCCC(=O)NCCCCCCCNC(=O)CCNC(=O)c3nc(NC(=O)CCNC(=O)c4cc(NC(=O)c5nc(NC(=O)CCNC(=O)c6cc(NC(=O)c7nccn7C)cn6C)cn5C)cn4C)cn3C)cc1)c1nnc(C)n1-2` [Compound 59] the EC50 was less than 100 nM. Compound `Cc1cc(-c2nc3cnc(C4CCN(C(=O)COCCOCCOCCOCCOCCC(=O)NCCCN(C)CCCNC(=O)CCNC(=O)c5nc(NC(=O)CCNC(=O)c6cc(NC(=O)c7nc(NC(=O)CCNC(=O)c8cc(NC(=O)c9nccn9C)cn8C)cn7C)cn6C)cn5C)CC4)cc3n2[C@@H](C)c2ccccc2)nn(C)c1=O` [Compound 19] has an EC50 of less than 100 nM. Work on `COC[C@@H](C)n1c(C2CCN(C(=O)COCCOCCOCCOCCOCCOCCOCCOCCNC(=O)CCNC(=O)c3nc(NC(=O)CCNC(=O)c4cc(NC(=O)c5nc(NC(=O)CCNC(=O)c6cc(NC(=O)c7nccn7C)cn6C)cn5C)cn4C)cn3C)CC2)nc2cnc3cc(-c4c(C)noc4C)c(OC)cc3c21` [Compound 44] yielded an EC50 of 100 to 500 nM. Work on `Cc1sc2c(c1C)C(c1ccc(Cl)cc1)=N[C@@H](CC(=O)Nc1ccc(OCCOCCOCCOCCOCCOCCOCCOCCOCCNC(=O)CCNC(=O)c3nc(NC(=O)CCNC(=O)c4cc(NC(=O)c5nc(NC(=O)CCNC(=O)c6cc(NC(=O)c7nccn7C)cn6C)cn5C)cn4C)cn3C)cc1)c1nnc(C)n1-2` [Compound 13] yielded an EC50 of less than 100 nM. With `Cc1sc2c(c1C)C(c1ccc(Cl)cc1)=N[C@@H](CC(=O)Nc1ccc(OCCOCCOCCOCCOCCOCCOCCOCCOCCNC(=O)CCNC(=O)c3cc(NC(=O)c4nc(NC(=O)CCNC(=O)c5cc(NC(=O)c6nc(NC(=O)CCNC(=O)c7cc(NC(=O)c8nccn8C)cn7C)cn6C)cn5C)cn4C)cn3C)cc1)c1nnc(C)n1-2` [Compound 33] the EC50 was 100 to 500 nM.
